Legend:
PBP = conditions: after shRNA transfection
Experimental: Immunoblotting. Cell extracts for western blots were obtained using RIPA buffer (1% Triton X-100, 40mM NaCl, 0.1% SDS, 10 mM Tris pH 8.0) supplemented with complete cocktail of proteinase inhibitors (Roche). For detection of phoshporylated epitopes, the PhosSTOP cocktail of phospatase inhibitors (Roche) was added in the lysis buffer. Protein extracts were separated by SDS-PAGE, transferred to Immobilon-P (Millipore) membranes and immunoblotted according to standard protocols. Blots were imaged using a FluorChem HD (Alpha Innotech) imaging system and images were analyzed by densitometry using the FluorChem 9900 software (Alpha Innotech). Antibodies used: anti-flag (M2; Stratagene), PBP (TRAP220, C-19; Santa Cruz), GAPDH (V-18; Santa Cruz Biotechnology), ERBB2 (clone 42; BD), phospho-ERBB2 (Tyr877, #2241; Cell Signaling Technology), phospho-ERBB2 (Tyr1221/1222, 6B12; Cell Signaling Technology), anti-rabbit IgG-HRP (sc-2204, Santa Cruz Biotechnology), anti-goat IgG-HRP (sc-2768, Santa Cruz Biotechnology), anti-mouse IgG-HRP (#31430; Pierce Biotechnology) qRT-PCR.

PBP mRNA = assay: qRT-PCR of PBP mRNA in BT474 cells; type: cell-based, human; conditions: shRNA 48 h
Experimental: (§1) FIG. 2 NR1D1 and PBP are necessary for survival of ERBB2-positive cells. (a) PBP and NR1D1 mRNA levels of BT474 cells transfected with luciferase (control), PBP or NR1D1 shRNAs for 48 h, analyzed by qRT-PCRs. (Error bars are s.d from 3 experiments; ***P<0.003, **P=0.01, *P=0.02). (b) BMAL1 luciferase reporter activity of BT474 cells transfected with either empty vector (control), or NR1D1 shRNA for 48 h.
(§2) Cell viability—apoptosis assays. […] At least 30 fields were imaged per single experiment. […] Immunoblotting. […] PCR reaction was run using standard conditions.

BT474 cells = assay: RNAi screen, alamarBlue cell proliferation and viability; type: cell-based, human; conditions: shRNA transfection
Source text: FIG. 1 An RNAi screen targeting genes overexpressed in breast cancer. (a) Three transfection mixes were produced for each shRNA and each was transfected into triplicate wells of BT474 cells. AlamarBlue was used to monitor cell proliferation and viability. […] (b) The genetic and functional linkage of NR1D1 and PBP. Mb refers to map position on chromosome 17. (c) ERBB2-overexpressing (OEX) and ERBB2 non-overexpressing (non-OEX) breast cancer cell lines as well as the (non-OEX) HMEC and HEK 293 cells were transfected and assayed as in (a). […] Genes clustered with ERBB2 are boxed.
Amplification of the ERBB2 oncogene occurs in 10-34% of breast cancer cases and is correlated with aggressive disease and poor clinical outcome^1. […] However, its success has been tempered by response rates of only 30% when used as a single agent therapy in patients with metastatic ERBB2-positive breast cancer^2. A large number of genes co-overexpressed with ERBB2 in this tumour type have been proposed to contribute to the aggressiveness of this cancer^3-5. Applicants have performed an unbiased functional RNAi screen^8-10 to determine if any of these co-overexpressed genes are essential for ERBB2 positive breast cancer cell survival.
RNAi screen, transfections and constructs. The flag-RevErba (flag-NR1D1) overexpression construct was a generous gift of M. Lazar. The LSXN-neu* (ERBB2) overexpression construct was a generous gift of L. Petti. shRNA constructs were expressed from the pSHAG-MAGIC 2 (pSM2) vector and derived from a genome-wide shRNA library^31. ShRNAs targeting the firefly (Photinus pyralis) luciferase gene were used as controls. Transfection efficiency was monitored by co-transfection with a modified MSCV-Puro vector expressing green fluorescent protein (GFP). The alamarBlue (Biosource) assay was performed 96 h post-transfection, since BT474 cells have a population doubling time of ˜100 hours. For mature sequences of the shRNAs that produced the best results on decreasing BT474 viability, Table S1; a complete list is available in the RNAi Codex web page (http://codex.cshl.edu). The shRNAs targeting the luciferase gene were constructed as described in the RNAi Codex web page (http://codex.cshl.edu/scripts/newmain.pl) using a modified pSM2 vector containing the PheS gene (pSM2-PheS) in the cloning site, as a negative selection marker. The empty vector control (pSM2e) was constructed by XhoI and EcoRI (New England Biolabs) digestion of pSM2-PheS, followed by nucleotide filling of protruding ends by Klenow polymerase and blunt-end ligation. Transfections were performed using FuGENE 6 and HD FuGENE (Roche) according to the manufacturer's protocol. High-throughput transfections were performed using an EpMotion 5070 fluidics station (Eppendorf). For quantification of alamarBlue we used a BioTek HT Synergy plate reader. AlamarBlue values from the RNAi screens on other cell types were also calculated as above and subjected to hierarchical cluster analysis using Cluster 2.11 (M. Eisen Lab).

MDH1 mRNA = assay: qRT-PCR of MDH1 mRNA in BT474 cells; type: cell-based, human; conditions: shRNA 48 h
Experimental: (§3) FIG. 5. (a) MDH1 and ME1 mRNA levels of BT474 cells treated with luciferase (control), PBP or NR1D1 shRNAs for 48 h, analyzed by qRT-PCRs. (Error bars are s.d from 3 experiments; **P<0.002 (b) BT474 and MCF-7 cells were transfected with luciferase (control) MDH1 and ME1 shRNAs (Error bars are s.d from 3 individual experiments; ***P=0.0003). (c) BT474 cells) assayed for cleaved Caspase-3 signal by immunofluorescence 48 h after transfection; cell nuclei were stained with Hoechst 33243. (d) Quantification of cleaved Caspase-3 signal from cells in (c). (Error bars are s.d from 3 individual experiments; ***P<0.005). (e) Enzymes involved in fatty acid synthesis and storage that are regulated by NR1D1 and PBP and their proposed contribution to energy production necessary for survival of ERBB2-positive breast cancer cells.
as §2

NR1D1 mRNA = assay: qRT-PCR of NR1D1 mRNA in BT474 cells; type: cell-based, human; conditions: shRNA 48 h, qRT-PCR
Experimental: as §1
(§4) FIG. 3 PPAR. inhibition impacts NR1D1 expression and ERBB2-positive cells viability. (a) Cell counts of BT474, MDA-MB-361, MCF-7 and HMEC cells treated with vehicle, 10 and 20 μM of the PPAR. antagonist GW9662 for 72 hrs. Results represented as % of control (vehicle). (Error bars are s.d from 3 individual experiments; *P>0.2, **P<0.05, ***P<0.002). (b) BT474 cells treated with vehicle or 20 μM of GW9662 for 48 h were immuno-stained for cleaved Caspase-3. (c) Quantification of Caspase-3 signal. (Error bars are s.d from 3 individual experiments; ***P=0.002). (d) aP2 and NR1D1 mRNA levels of BT474 cells treated with vehicle (control) and 20 μM of GW9662 for 48 h, analyzed by qRT-PCRs. […]

BMAL1 reporter = assay: BMAL1 luciferase reporter assay in BT474 cells; type: cell-based, human; conditions: shRNA 48 h, vs empty vector
Experimental: as §1
as §4, with “(Error bars are s.d from 3 individual experiments; ***P=0.002).” left out
Reporter assays. […] Cells were lysed 48 h post-transfection and firefly (reporter) and renilla luciferase activities were measured using the Dual-Luciferase Reporter Assay kit (Promega) on a BioTek Synergy HT reader. The ratio of Firefly to Renilla luciferase activity was calculated and presented as percentage of control.

ME1 mRNA = assay: qRT-PCR of ME1 mRNA in BT474 cells; type: cell-based, human; conditions: shRNA 48 h
Experimental: as §3, §2

Substance | PBP protein levels (PBP) | decrease in mRNA levels of target (PBP) (PBP mRNA) [%] | effect on cell proliferation (BT474 cells) | MDH1 message levels (MDH1 mRNA) | decrease in mRNA levels of target (NR1D1) (NR1D1 mRNA) [%] | up-regulation of BMAL1 reporter (BMAL1 reporter) [fold] | ME1 message levels (ME1 mRNA)
PBP shRNA: shRNA, mature sequence CCGAGTTCCTCTTATCCTA (shRNA) | decreased protein levels | > 60 | most dramatic effect on cell proliferation |  |  |  | 
NR1D1 shRNA: shRNA, mature sequence GGCATGGTGTTACTGTGTA (shRNA) |  |  | most dramatic effect on cell proliferation | significantly decreased | > 60 | 2.5 | significantly decreased
